Here are results for 8 compounds from the Kinase Knowledgebase extract (Sharma et al. 2016).

Some results are limits rather than exact numbers.

The first experiment deals with MAPK14 (UniProt Q16539). The experiment can be described thus: Inhibition of MAPK14 Kinase Activity.
Sequence of MAPK14 (Q16539 whole entry, looked up): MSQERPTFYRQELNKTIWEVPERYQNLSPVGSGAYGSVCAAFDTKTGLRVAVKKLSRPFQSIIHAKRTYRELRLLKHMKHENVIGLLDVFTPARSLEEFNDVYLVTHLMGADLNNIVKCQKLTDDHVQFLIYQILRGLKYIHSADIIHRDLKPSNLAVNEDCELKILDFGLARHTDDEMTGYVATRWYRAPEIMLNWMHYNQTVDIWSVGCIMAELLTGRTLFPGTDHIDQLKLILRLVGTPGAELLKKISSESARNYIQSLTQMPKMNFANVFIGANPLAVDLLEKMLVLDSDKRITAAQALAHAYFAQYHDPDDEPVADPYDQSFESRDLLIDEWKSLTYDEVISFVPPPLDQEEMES
The IC50 is the point on the concentration scale where inhibition reaches its midpoint. Low readings indicate inhibition by little substance, high ones a need for much substance. `CCc1cnc2c(c1)C(=Cc1cc(Br)c(O)c(Br)c1)C(=O)N2` registered an IC50 of less than 1000 nM. As for `COc1ccccc1-c1cc(C=C2C(=O)Nc3ncc(Br)cc32)cc(Br)c1O`, the IC50 was less than 1000 nM. As to `NC(=O)c1cncc(-c2cnc3c(c2)C(=Cc2cc(Br)c(O)c(Br)c2)C(=O)N3)c1`, the IC50 fell in the range of 1000 to 10000 nM.

In the case of `O=C1Nc2ncc(Br)cc2C1=Cc1cc(Br)c(O)c(Br)c1`, the IC50 is less than 1000 nM.

The compound `O=C1Nc2nc(Cl)ccc2C1=Cc1cc(Br)c(O)c(Br)c1` registered a 50% inhibitory concentration (IC50) of less than 1000 nM.

The target of a further experiment is CDK2 (UniProt P24941). The experiment can be described thus: Enzyme Assay.
`CCc1cnc2c(c1)C(=Cc1cc(Br)c(O)c(Br)c1)C(=O)N2` showed an IC50 of less than 1000 nM. For the compound `C=Cc1cnc2c(c1)C(=Cc1cc(Br)c(O)c(Br)c1)C(=O)N2`, the IC50 is less than 1000 nM. Compound `O=C1Nc2ncc(Br)cc2C1=Cc1cc(Br)c(O)c(Br)c1` gave an IC50 of less than 1000 nM.

`NS(=O)(=O)c1ccc(-c2ccc(C=C3C(=O)Nc4ncc(-c5ccsc5)cc43)o2)cc1` came in with an IC50 of less than 1000 nM.

Turning to `O=C1Nc2ncc(Br)cc2C1=Cc1cc([N+](=O)[O-])c(O)c([N+](=O)[O-])c1`, the IC50 is less than 1000 nM.
